The text below walks through data of ChEMBL document CHEMBL1145340, “Potential lead for an Alzheimer drug: a peptide that blocks intermolecular interaction and amyloid beta protein-induced cytotoxicity” (J Med Chem, 2006).

Calls of active or inactive are those of the source. The rule behind the calls is not given here. Peptide text beside a SMILES is read from it.

Assay [1] deals with PC-12. The assay is described as follows: Protection against beta amyloid 42-induced neurotoxicity in rat PC12 cells by MTT reduction assay. It counts as functional, cell-based. (Formazan colour is commonly taken as a measure of viable cells.)
For assay [2], the target named is Amyloid-beta precursor protein (Homo sapiens) (UniProt P05067). The assay is described as follows: Binding affinity to beta amyloid 42 by ELISA.
Chain of Amyloid-beta precursor protein (Homo sapiens) (P05067 whole entry): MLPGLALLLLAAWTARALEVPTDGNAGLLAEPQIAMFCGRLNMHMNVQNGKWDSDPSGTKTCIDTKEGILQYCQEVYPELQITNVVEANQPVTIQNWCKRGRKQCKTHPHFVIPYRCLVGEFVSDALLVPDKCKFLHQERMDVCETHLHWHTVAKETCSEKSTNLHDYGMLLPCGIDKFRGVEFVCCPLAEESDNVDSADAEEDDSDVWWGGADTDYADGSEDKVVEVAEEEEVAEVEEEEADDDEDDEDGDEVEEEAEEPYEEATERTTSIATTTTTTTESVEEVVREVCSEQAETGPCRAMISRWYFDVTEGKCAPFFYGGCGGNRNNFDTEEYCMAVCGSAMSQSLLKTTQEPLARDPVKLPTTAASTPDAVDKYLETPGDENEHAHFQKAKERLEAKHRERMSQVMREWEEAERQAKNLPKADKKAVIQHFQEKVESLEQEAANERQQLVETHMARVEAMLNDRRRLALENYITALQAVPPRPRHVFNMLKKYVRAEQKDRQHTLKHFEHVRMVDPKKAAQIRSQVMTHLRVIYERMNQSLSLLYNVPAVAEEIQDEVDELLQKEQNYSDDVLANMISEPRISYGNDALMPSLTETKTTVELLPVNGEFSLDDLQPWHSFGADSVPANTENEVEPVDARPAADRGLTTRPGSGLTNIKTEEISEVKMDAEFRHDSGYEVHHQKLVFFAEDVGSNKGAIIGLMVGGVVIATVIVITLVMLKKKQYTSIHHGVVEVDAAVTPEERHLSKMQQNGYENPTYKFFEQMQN
The target is the same in assay [3]. Description: Inhibition of self-aggregation of beta amyloid 42 by thioflavin T assay. It counts as functional.
Assay [4] shares this target. Description: Binding affinity to beta amyloid 42 at 10 uM to 100 uM by ELISA. A general note: In an ELISA, binding on a coated surface is turned into a signal by an enzyme label.
The test system of assay [5] is PC-12. The assay is described as follows: Neutralizing activity against beta amyloid 42-induced cytotoxicity in rat PC12 cells at 100 uM by MTT reduction assay. It counts as functional, cell-based.

As to `CC(C)[C@H](NC(=O)[C@H](Cc1ccccc1)NC(=O)[C@@H](N)[C@H](C)O)C(=O)N[C@@H](CCCN=C(N)N)C(=O)N[C@H](C(=O)O)[C@H](C)O`, in the assay with PC-12 [1], the result was inactive. For the compound `CC(C)[C@H](NC(=O)[C@H](Cc1ccccc1)NC(=O)[C@@H](NC(=O)[C@@H](N)CS)[C@H](C)O)C(=O)N[C@@H](CCCN=C(N)N)C(=O)O`, in the assay on PC-12 [1], the result was inactive. For the same compound, the result in assay [2] was Active. For the compound `CC[C@H](C)[C@H](NC(=O)[C@H](Cc1c[nH]cn1)NC(=O)[C@@H](NC(=O)[C@H](CCCN=C(N)N)NC(=O)[C@@H](NC(=O)[C@H](Cc1ccccc1)NC(=O)[C@@H](NC(=O)[C@@H](N)CS)[C@@H](C)O)C(C)C)[C@@H](C)O)C(=O)N[C@@H](Cc1ccccc1)C(=O)N[C@@H](CS)C(=O)N[C@@H](CCCCN)C(=O)N[C@@H](CCC(=O)O)C(=O)N[C@@H](Cc1c[nH]cn1)C(=O)N[C@@H](CCC(N)=O)C(=O)N[C@@H](Cc1ccccc1)C(=O)O` (H-CTFVRTHIFCKEHQF-OH), the Activity result (in the assay with PC-12 [1]; in assay [3]) was “Dose-dependent effect” in each case. For the same compound, the result in assay [2] was Active. On to H-CKEHQ-OH, for which, in the assay on PC-12 [1], the result was inactive.

For H-FCKEH-OH, the outcome with PC-12 [1] was inactive. On to H-FNHKKRLLHPSLFPR-OH, for which the result in assay [2] and in assay [3] was inactive.

Consider H-FVRTH-OH, for which the outcome in the assay with PC-12 [1] was inactive.

For the compound H-HESNDCTFV-OH, the outcome in assay [2] was inactive. As to H-HESNDCTFVRT-OH, in assay [4], the result was Active. Further, in the assay on PC-12 [5], the result was inactive.

With H-HIFCK-OH, in the assay with PC-12 [1], the outcome was inactive. The same measure, in the same setting: in the case of H-IFCKE-OH it was “inactive”. For H-KEHQF-OH, the result (in the assay on PC-12 [1]; in assay [3]) was inactive.

As for H-THIFC-OH, the outcome with PC-12 [1] was inactive. Consider H-VRTHI-OH, for which the outcome with PC-12 [1] was inactive.
